Experimental data as given in ChEMBL document CHEMBL1770128, “Synthesis and antifungal activities of novel 5,6-dihydro-indolo[1,2-a]quinoxaline derivatives” (2011).

Key:
Assay type in all cases: functional
[1] = tested on: Alternaria alternata; assay: Antimicrobial activity against Alternaria alternata at 50 ug/ml […] by poisoned food technique; conditions: 120 h
[2] = tested on: Fusarium oxysporum f. sp. vasinfectum; assay: Antimicrobial activity against Fusarium oxysporum f. sp. vasinfectum at 50 ug/ml […] by poisoned food technique; conditions: 120 h
[3] = tested on: Alternaria brassicae; assay: Antimicrobial activity against Alternaria brassicae at 50 ug/ml […] by poisoned food technique
[4] = tested on: Fusarium graminearum; assay: Antimicrobial activity against Fusarium graminearum at 50 ug/ml after 5 days by poisoned food technique; conditions: 120 h
[5] = tested on: Pyricularia oryzae; assay: Antimicrobial activity against Pyricularia oryzae at 50 ug/ml after 5 days by poisoned food technique; conditions: 120 h

COc1cc(C2Nc3ccccc3-n3c2cc2c(C)cccc23)ccc1O (stereo not given)
inhibition at 50 µg/mL [1]: 17.9%
inhibition at 50 µg/mL [2]: 20.2%
inhibition at 50 µg/mL [3]: 21%
inhibition at 50 µg/mL [4]: 12.3%
inhibition at 50 µg/mL [5]: 16%

COc1ccc(C2Nc3ccccc3-n3c2cc2c(C)cccc23)cc1 (stereo not given)
inhibition at 50 µg/mL [1]: 14.9%
inhibition at 50 µg/mL [2]: 9.7%
inhibition at 50 µg/mL [3]: 7.2%
inhibition at 50 µg/mL [4]: 12.2%
inhibition at 50 µg/mL [5]: 15.1%

Cc1cccc2c1cc1n2-c2ccccc2NC1c1ccc([N+](=O)[O-])cc1 (stereo not given)
inhibition at 50 µg/mL [1]: 17.7%
inhibition at 50 µg/mL [2]: 5.3%
inhibition at 50 µg/mL [3]: 10.4%
inhibition at 50 µg/mL [4]: 24.6%
inhibition at 50 µg/mL [5]: 10.1%

Cc1cc(O)no1 [HYMEXAZOL]
inhibition at 50 µg/mL [1]: 68.8%
inhibition at 50 µg/mL [2]: 62.7%
inhibition at 50 µg/mL [3]: 47.1%
inhibition at 50 µg/mL [4]: 57%
inhibition at 50 µg/mL [5]: 53.5%

O=[N+]([O-])c1ccc(C2Nc3ccccc3-n3c2cc2ccccc23)cc1 (stereo not given)
inhibition at 50 µg/mL [1]: 19.4%
inhibition at 50 µg/mL [2]: 9.2%
inhibition at 50 µg/mL [3]: 11.2%
inhibition at 50 µg/mL [4]: 17.2%
inhibition at 50 µg/mL [5]: 5.8%

Cc1ccc2cc3n(c2c1)-c1ccccc1NC3c1ccc(O)cc1 (stereo not given)
inhibition at 50 µg/mL [1]: 56.3%
inhibition at 50 µg/mL [2]: 37.3%
inhibition at 50 µg/mL [3]: 49%
inhibition at 50 µg/mL [4]: 41.2%
inhibition at 50 µg/mL [5]: 43.7%

Cc1cccc2c1cc1n2-c2ccccc2NC1c1ccc(O)cc1 (stereo not given)
inhibition at 50 µg/mL [1]: 72.9%
inhibition at 50 µg/mL [2]: 41.2%
inhibition at 50 µg/mL [3]: 55.9%
inhibition at 50 µg/mL [4]: 51.3%
inhibition at 50 µg/mL [5]: 50.8%

Cc1c2n(c3ccccc13)-c1ccccc1NC2c1ccc(O)cc1 (stereo not given)
inhibition at 50 µg/mL [1]: 55.6%
inhibition at 50 µg/mL [2]: 44%
inhibition at 50 µg/mL [3]: 53%
inhibition at 50 µg/mL [4]: 48%
inhibition at 50 µg/mL [5]: 46.5%

N#Cc1ccc2c(c1)cc1n2-c2ccccc2NC1c1ccc([N+](=O)[O-])cc1 (stereo not given)
inhibition at 50 µg/mL [1]: 64.6%
inhibition at 50 µg/mL [2]: 60.8%
inhibition at 50 µg/mL [3]: 52.4%
inhibition at 50 µg/mL [4]: 56.3%
inhibition at 50 µg/mL [5]: 62.8%

Cc1cccc2c1cc1n2-c2ccccc2NC1c1ccccc1 (stereo not given)
inhibition at 50 µg/mL [1]: 29.2%
inhibition at 50 µg/mL [2]: 8.8%
inhibition at 50 µg/mL [3]: 30.4%
inhibition at 50 µg/mL [4]: 32%
inhibition at 50 µg/mL [5]: 22.1%

Cc1ccc2cc3n(c2c1)-c1ccccc1NC3c1ccc([N+](=O)[O-])cc1 (stereo not given)
inhibition at 50 µg/mL [1]: 7.8%
inhibition at 50 µg/mL [2]: 11.7%
inhibition at 50 µg/mL [3]: 13%
inhibition at 50 µg/mL [4]: 12.2%
inhibition at 50 µg/mL [5]: 1.6%

Cc1cccc2c1cc1n2-c2ccccc2NC1c1ccccc1O (stereo not given)
inhibition at 50 µg/mL [1]: 12%
inhibition at 50 µg/mL [2]: 11.7%
inhibition at 50 µg/mL [3]: 55.8%
inhibition at 50 µg/mL [4]: 8.8%
inhibition at 50 µg/mL [5]: 7.8%

Cc1cccc2c1cc1n2-c2ccccc2NC1c1ccc(N(C)C)cc1 (stereo not given)
inhibition at 50 µg/mL [1]: 19.8%
inhibition at 50 µg/mL [2]: 6.9%
inhibition at 50 µg/mL [3]: 10.4%
inhibition at 50 µg/mL [4]: 17.6%
inhibition at 50 µg/mL [5]: 7.7%

COc1cc(C2Nc3ccccc3-n3c2cc2ccccc23)ccc1O (stereo not given)
inhibition at 50 µg/mL [1]: 9.2%
inhibition at 50 µg/mL [2]: 11%
inhibition at 50 µg/mL [3]: 15.7%
inhibition at 50 µg/mL [4]: 15.7%
inhibition at 50 µg/mL [5]: 4.4%

Cc1c2n(c3ccccc13)-c1ccccc1NC2c1ccco1 (stereo not given)
inhibition at 50 µg/mL [1]: 37.3%
inhibition at 50 µg/mL [2]: 17.8%
inhibition at 50 µg/mL [3]: 30.1%
inhibition at 50 µg/mL [4]: 31.5%
inhibition at 50 µg/mL [5]: 33.4%

Cc1cccc2c1cc1n2-c2ccccc2NC1(C)c1ccccc1 (stereo not given)
inhibition at 50 µg/mL [1]: 32.7%
inhibition at 50 µg/mL [2]: 23.6%
inhibition at 50 µg/mL [3]: 29.9%
inhibition at 50 µg/mL [4]: 43%
inhibition at 50 µg/mL [5]: 34.6%

Oc1ccc(C2Nc3ccccc3-n3c2cc2ccccc23)cc1 (stereo not given)
inhibition at 50 µg/mL [1]: 58.3%
inhibition at 50 µg/mL [2]: 39.2%
inhibition at 50 µg/mL [3]: 31.4%
inhibition at 50 µg/mL [4]: 52.1%
inhibition at 50 µg/mL [5]: 50.8%

Cc1c2n(c3ccccc13)-c1ccccc1NC2c1ccc([N+](=O)[O-])cc1 (stereo not given)
inhibition at 50 µg/mL [1]: 18.2%
inhibition at 50 µg/mL [2]: 11.4%
inhibition at 50 µg/mL [3]: 13.3%
inhibition at 50 µg/mL [4]: 26.6%
inhibition at 50 µg/mL [5]: 11.8%
